This note sets out measurements from US20180282339A1 (OLON S.P.A., priority 2015, published 2018).

For the series the following is noted: conditions not specified at this place, b45 (heating at 60-120 ° C. for 1-12 hours gives amorphous form). Here is the method:
In particular the following tests have been made: • stability at 25° C./40% Relative Humidity for 7 days • stability at 40° C./75% Relative Humidity for 7 days • stability at 25° C./60% Relative Humidity for 7 days • stability at 60° C./40% Relative Humidity for 7 days

In the case of `C=CC(=O)N1CCC[C@@H](n2nc(-c3ccc(Oc4ccccc4)cc3)c3c(N)ncnc32)C1` [Form L, 1-[(3R)-3-[4-amino-3-(4-phenoxyphenyl)-1H-pyrazolo[3,4-d]pyrimidin-1-yl]piperidin-1-yl]prop-2-en-1-one], the “solid form conversion in some conditions” value is given as “converts in Form A or in the amorphous form”.
